For test [1], the system named is tyrosinase. Nature of the test: Tyrosinase activity (DOPA oxidase assay) in lysates of B16-F1 cells cultured with free or liposome-included inhibitor. Conditions: 24 h after washout following 72 h incubation. The test is classed as cell-based, mouse. The procedure: B16-F1 mouse melanoma cells (European Collection of Animal Cell Culture, Porton Down, U.K.) were cultured in RPMI 1640 medium (Life Technologies, Paisley, Scotland, and U.K.) as described in ref. [8]. Cells were incubated with liposomes for 72 h at 37° C. and their viability was determined by using the trypan blue staining test. Following the incubation time, cells were harvested, washed three times with PBS and lysed in 10 mM phosphate buffer, pH 6.8 containing 1% Nonidet P40 and proteinase inhibitors.
Tyrosinase activity was measured by the DOPA oxidase assay that measures the conversion of DOPA to DOPAchrome via DOPA quinone. Briefly, 50 μl of cell lysate was mixed with 950 μl of 1 mM DOPA in 0.1 M sodium phosphate buffer, pH 7.2 at 37° C. and the reaction was followed spectrophotometrically at 475 nm by the chromogenic appearance of DOPAchroine from 1 mM DOPA (ref. [8]).
To investigate the uptake of liposome encapsulated NB-DNJ in living cells,.the activity of tyrosinase was monitored, a constitutively expressed enzyme of melanoma cells, highly sensitive to small variations of the NB-DNJ concentration in the culture medium (ref. [8]). Inhibition of N-glycosylation processing in the presence of NB-DNJ yields a tyrosinase polypeptide caring Glc3Man7-9GlcNAc glycans. […]

Test [2] has as its system B16-F1 mouse melanoma cells. Nature of the test: Pigmentation of melanoma cells, visual inspection. The test is classed as cell-based. Conditions: 0.5 mM free NB-DNJ, 72 h. The procedure: Cells were treated with for 72 h in the presence and absence of NB-DNJ free or included in liposomes, transferred into a microtiter plate and pelleted by centrifugation.
Tyrosinase is the regulatory enzyme of melanogenesis in melanocytes. Therefore, inactivation of tyrosinase is associated with lack of pigmentation due to the absence of melanin synthesis in specialized cells. To correlate the results on tyrosinase activity, with the melanin content, the pigmentation of the melanoma cells treated With liposomes was observed. […] The lack of pigmentation in melanoma cells treated with minute amounts of liposomal NB-DNJ correlates well with the abolishment of tyrosinase activity as a result of N-glycosylation processing inhibition, reinforcing the efficiency of the cytoplasmic delivery of the drug encapsulated in liposomes.

Test [3] deals with tyrosinase. Conditions: B16 mouse melanoma cells, 0.5 mM-5 mM free NB-DNJ (ref. [6]); cited from earlier work.

In the case of `CCCCN1C[C@H](O)[C@@H](O)[C@H](O)[C@H]1CO` [NB-DNJ, N-butyldeoxynojirimycin], in the test on tyrosinase [1], the “recovery of tyrosinase activity” value came out at 75%. In test [2], the pigmentation entry was “dramatic decrease”. Also, the tyrosinase activity result in the test with tyrosinase [3] is recorded as “dramatic decrease”.

The values above are taken from patent publication US20030124160A1, “Targeted drug delivery” (priority 2001, published 2003).
